“Also recorded” adds a separate entry of the source. Where a SMILES comes first, the peptide text is derived from it. Bridges are numbered along the chain shown (N, C = ends). [ ]: non-standard residue; d: D form. Tic = O=C(O)[C@@H]1Cc2ccccc2CN1; Mpa = O=C(O)CCS

This is an account of results in patent publication US5792745A, “Use of peptides for altering bone resorption” (La Jolla Cancer Research Center, priority 1995, dated 1998).

Assay [1] concerns the target T1, α5 β1 (FnR) (Homo sapiens, UniProt P05556+P08648).
T1 construct: Fibronectin receptor (FnR) was purified from 100 mM octyl-glucopyranoside-extracted human placenta; from tissue
Kind of assay: α5 β1 ELISA (competitive). The class given is binding. As to conditions: comparison of ELISA values. The procedure:
Peptide binding to purified human αv β5 and αv β3, which are VnR's, and to α5 β1, which is a FnR, was determined using competitive ELISA assays as described below. If desired, an αIIb β3 ELISA can be performed as described in W091/15515.
Peptide binding to purified human α5 β1 (FnR) also was determined using a competitive ELISA. In these assays, Fn was immobilized to the wells and the binding of solubilized FnR in the presence of various concentrations of a peptide analogue was determined using a mouse monoclonal antibody to human β1 (clone P4C10; Gibco) and specific binding was visualized using a second antibody.
Microtiter wells were coated at RT by adding 100 μl of 2 μg/ml human Fn in TBS and incubating the plates overnight at 4° C. Following incubation, the plates were washed 3× with TBS/"TWEEN 20" (polyoxyethylenesorbitan monolaurate). RGD peptides were diluted in TBS containing 20 mM OG and 2 mM MnCl2 and 50 μl was added to wells at 10-fold serial dilutions. FnR was diluted in the same buffer and 50 μl was added to each well.
The plates were incubated for 3 hr at RT and washed with 300 μl TBS/"TWEEN 20" (polyoxyethylenesorbitan monolaurate). Bound receptor was incubated with 100 μl of the monoclonal anti-β1 antibody for 2 hr, then washed 3× with TBS/"TWEEN 20" (polyoxyethylenesorbitan monolaurate). […] The amount of bound second antibody was determined as described above. […]
In general terms: ELISA stands for enzyme-linked immunosorbent assay.

The target of assay [2] is T2, αv β3 receptor (Homo sapiens, UniProt P05106+P06756).
T2 construct: The αv β3 receptor was purified from octyl-glucopyranoside-extracted human placenta; from tissue
Kind of assay: αv β3 ELISA (competitive). The format is binding. As to conditions: ELISA / JY cell IC50 values of FIG. 2 compared. The procedure: Peptide binding to purified αv β3 receptor was determined by using a competitive ELISA, in which αv β3 receptor was immobilized and the binding of solubilized VN, in the presence of various concentrations of peptide analogue, was detected using a monoclonal mouse IgG anti-VN antibody and a labelled anti-mouse IgG conjugate.
50 μl of Vn in the same buffer then was added to each well.
The development process was stopped by adding 50 μl to 4N H2 SO4 to each well. The plates were read at 490 nm and the data analyzed by four parameter fit.

Assay [3] concerns integrin receptors / osteoclasts. Kind of assay: series of assays of Examples II and III for potency and selectivity (summary). As to conditions: for activity of minimal-element peptides (in words): FIG. 2. An excerpt:
Peptides of the RGDNTic (SEQ ID NO: 31) pharmacophore group are characterized, in general, as having increased potency, whereas the peptides of the pharmacophore RGDDV (SEQ ID NO: 1) group generally have higher receptor selectivity. […] As used herein, the term "potency" or "potent" means that a peptide of the invention is active at a relatively low concentration in the assays described in Examples II and III. A potent peptide of the invention can be identified, for example, using the assays described in Examples II and III.
The present invention also provides a series of in vitro and in vivo assays useful for screening a panel of peptides in order to identify peptides that can reduce or inhibit bone resorption or that can alter integrin binding such as αv β3 integrin receptor-mediated binding. Such peptides can include, for example, peptides within the pharmacophore groups exemplified herein or peptides within other pharmacophore groups. The series of assays disclosed herein is particularly useful for determining the selectivity and potency of a peptide for reducing or inhibiting bone resorption. The selectivity of a peptide for an integrin receptor involved in osteoclast binding to bone can be determined, for example, using the integrin receptor assays and cell attachment and detachment assays described herein. Use of cell-based assays in conjunction with receptor-based assays is informative because the receptor ELISAs provide useful information regarding the binding characteristics of a particular peptide toward a particular integrin and because the cell-based assays confirm that those characteristics are relevant to the αv β3 receptor or to bone resorption.

Assay [4] has as its system osteoclasts. The settings on record: cited from earlier work.
The subject of assay [5] is bone resorption. The settings on record: cited from earlier work.
Assay [6] relates to chick osteoclasts. Kind of assay: chick cell detachment assay (osteoclasts vs total cells). As to conditions: FIG. 5. The format is cell-based.
Assay [7] relates to rat osteoclasts. Kind of assay: rat osteoclast attachment assay compared with MG63 / NRK cell attachment. The class given is cell-based. As to conditions: FIGS. 7 and 8 compared. The protocol:
3. Rat osteoclast attachment assay
To determine the effect of a peptide on the attachment of rat osteoclasts in vitro, 100 μl aliquots of the rat pup bone cell suspension described in Example II.B.2., above, were added in triplicate to 96 well MAXISORP plates coated with specific substrates or with FCS. Substrate coated plates were used to determine the ability of peptides to inhibit attachment or induce detachment of an osteoclast from a ligand such as vitronectin, fibronectin, osteopontin or collagen I (Collaborative Research), which are ligands present in bone. Substrates were added to 96 well plates (50 μl of a 5-10 μg/ml solution in sodium carbonate, pH 9.5) and incubated for 2 hr at 37° C. For FCS control wells, 100 μl 10% FCS was added. Wells were aspirated, then washed 2× with PBS and blocked with 1% bovine serum albumin in PBS for 2 hr at 37° C. Wells were aspirated and washed again 2× with PBS. Cells were seeded in duplicate at 4×10^4 cells/well. […]
Following incubation, the medium and nonadherent cells were removed by aspiration from each well. […] Adherent osteoclasts were counted by light microscopy. […]
MG63 and NRK cell lines were purchased from ATTC (Rockville, Md.). […] Following staining, the stain was extracted with 20% acetic acid and the OD562 of the extracted stain was determined. […]
Selectivity of a peptide can be determined by comparing the results of FIGS. 7 and 8 (see, also FIG. 2).

Assay [8] has as its system parathyroid hormone-induced hypercalcemia. Kind of assay: parathyroid hormone-induced hypercalcemia in mice. The format is in vivo. The settings on record: parathyroidectomized mice, 4 hr peptide infusion, FIG. 9.
Assay [9] relates to neointimal hyperplasia. The settings on record: rabbit, in vivo; cited from earlier work.

As to `N=C(N)NCCC[C@@H]1NC(=O)CC[C@@H](C(N)=O)NC(=O)[C@@H]2CCCN2C(=O)[C@H](CO)NC(=O)[C@H](CC(=O)O)NC(=O)CNC1=O` [compound 825] (RGDSPE-NH2; lactam N-6), in assay [1], the “receptor selectivity for α5 β1 versus αv β5” value was “more selective toward α5 β1 than toward αv β5”.

With `CC(C)[C@@H]1NC(=O)[C@H](CC(=O)O)NC(=O)[C@H](CC(=O)O)NC(=O)CNC(=O)[C@H](CCCNC(=N)N)NC(=O)CNC(=O)C[C@@H](C(N)=O)NC1=O` [peptide 368] (GRGDDVD-NH2; lactam N-7), the “receptor selectivity for αv β3 versus αv β5 and α5 β1 (comparison of IC50 values)” value in assay [2] is given as “receptor selective for αv β3; also recorded: selective peptide”. In assay [3], the “both potent and selective (summary classification)” value was “both potent and selective”; the “receptor selectivity (summary classification)” value is recorded as “particularly receptor selective”. In the case of Echistatin, the “binding to osteoclasts (literature)” value in assay [4] is given as “binds to osteoclasts in a nonselective manner”. Besides, in assay [4] (in vitro), the “inhibition of bone resorption in vitro (literature)” value is “inhibits bone resorption in vitro”. Moreover, in [5], the “inhibition of bone resorption in vivo (literature)” value is given as “inhibits bone resorption”. For the compound `C[C@@H]1NC(=O)[C@H](CCCNC(=N)N)NC(=O)CNC(=O)CC[C@@H](C(N)=O)NC(=O)[C@@H]2CCCN2C(=O)[C@H](CC(N)=O)NC(=O)[C@H](CC(=O)O)NC(=O)CNC(=O)[C@H](CCCNC(=N)N)NC1=O` [compound 390] (GRARGDNPE-NH2; lactam N-9), in [1], the “receptor selectivity for α5 β1 versus αv β5” value is “more selective toward α5 β1 than toward αv β5”.

As for `CC(=O)N[C@H]1CSSC[C@@H](C(N)=O)NC(=O)[C@@H]2Cc3ccccc3CN2C(=O)[C@H](CO)NC(=O)[C@H](CC(=O)O)NC(=O)CNC(=O)[C@H](CCCNC(=N)N)NC1=O` [compound 812, Ac-CRGDS(Tic)C-NH2] (Ac-CRGDS[Tic]C-NH2; disulfide 1-7), the “activity of minimal-element peptides (in words)” value in assay [3] is “demonstrate activity”. Consider `CC(C)[C@@H]1NC(=O)[C@H](CC(=O)O)NC(=O)[C@H](CC(=O)O)NC(=O)CNC(=O)[C@H](CCCNC(=N)N)NC(=O)CC[C@@H](C(N)=O)NC1=O` [peptide 386, RGDDVE-NH2] (RGDDVE-NH2; lactam N-6), for which, in assay [6], the “selective detachment of osteoclasts versus other cell types” value was “caused selective detachment of osteoclasts as compared to other cell types”. The “selectivity: osteoclast attachment versus MG63 or NRK attachment” value in assay [7] is recorded as “selective”. Moreover, the “PTH-induced change in serum ionized calcium” value in assay [8] was “relatively low level of serum calcium”. The “activity of minimal-element peptides (in words)” value in [3] was “demonstrate activity”. Turning to `CC(C)[C@@H]1NC(=O)[C@H](CC(=O)O)NC(=O)[C@H](CC(=O)O)NC(=O)CNC(=O)[C@H](CCCNC(=N)N)NC(=O)CCSSC[C@@H](C(N)=O)NC1=O` [compound 191] ([Mpa]RGDDVC-NH2; disulfide 1-7), the “PTH-induced change in serum ionized calcium” value in assay [8] is “decreased the PTH-induced rise in serum ionized calcium in a dose responsive manner”. For the compound G(Pen)GRGDSPCA, the “inhibition of neointimal hyperplasia (literature)” value in assay [9] was “can inhibit neointimal hyperplasia”.
